The record followed here is PMC8365601, “Terphenyl-Based Small-Molecule Inhibitors of Programmed Cell Death-1/Programmed Death-Ligand 1 Protein–Protein Interaction” (Journal of Medicinal Chemistry, 2021).

For one data set, the target named is T1, human PD-L1 (Homo sapiens, UniProt Q9NZQ7).
T1 construct: pET-21b plasmid carrying the PD-L1 gene (amino acids 18–134); made in house; host or cells: Escherichia coli BL21
The data set is described as follows: 1H NMR titration with human PD-L1. Format: binding. As to conditions: molar ratio 1:1. Here is the method:
(§1) NMR spectra were recorded in PBS pH 7.4 containing 10% (v/v) of D2O added to the samples to provide the lock signal. Water suppression was carried out using the WATERGATE sequence. All the spectra were recorded at 300 K using a Bruker AVANCE 600 MHz spectrometer with the cryo-platform. The spectra were recorded at the ligand/protein ratio of 1:1, unless stated otherwise. The samples were prepared by adding small amounts of a 50 mM ligand stock solution in DMSO to the protein solution (0.20 mL) of PD-L1 fragment at a concentration of 0.2 mM. Spectra were visualized using TopSpin 4.0.2.

In another data set the target is murine PD-L1 (Mus musculus, UniProt Q9EP73). The data set is described as follows: 1H NMR titration with murine PD-L1. Format: binding. As to conditions: over-titration 1:10 protein:compound. On the procedure:
We additionally compared the spectra of the interaction of 8j with hPD-L1 (Figure 2B) and murine PD-L1 (mPD-L1) (Figure 2C). Only for human PD-L1, changes in NMR were observed upon addition of 8j to the protein.
as §1

Data set [1] in a line: Cytotoxicity assay toward Jurkat-ECs. Format: cell-based. As to conditions: human, Jurkat-EC cells, SI csv. On the procedure:
The cytotoxicity of compounds was verified toward Jurkat-ECs since these cells provide the readout in the ICB assay and present a much higher degree of susceptibility to the compounds’ toxicity than CHO-K1 cells (not shown). Jurkat-ECs were seeded on 96-well transparent plates in the presence of increasing concentrations of the compounds with DMSO-treated cells as a control. The concentration of DMSO was kept constant (0.1%). After 48 h of incubation, a tetrazolium reagent, Biolog redox dye MIX MB (Biolog), was added according to the manufacturer’s protocol, and the culture plates were incubated for an additional 2 h (37 °C, 5% CO2). The absorbance was measured using a Spark microplate reader (Tecan) at 590 nm with 750 nm as a reference. The data are presented as Jurkat-EC survival relative to DMSO-treated control cells. Data points represent mean ± SD values from three independent experiments. Half-maximal effective concentrations (EC50 values) were calculated from the dose–response curve using OriginPro 2020 (OriginLab) software.

Data set [2] relates to PBMCs cocultured with CHO/TCRAct/PD-L1 cells. The data set is described as follows: Cytokine accumulation in culture media of the TCA assay (CBA Th1/Th2/Th17 kit). As to conditions: TCA assay supernatants, four donors. The data set is classed as cell-based, human. Here is the method:
In addition to the expression of surface markers, the accumulation of immune-related cytokines in the culture media collected in the TCA assay was monitored with the cytometric bead array (CBA) human Th1/Th2/Th17 kit. […] Also, the levels of IL-6, IFN-γ, and IL-2 increased, but these increases were not statistically significant.
The concentration of the cytokines (IL-2, IL-4, IL-6, IL-10, IL-17A, IFN-γ, and TNFα) in supernatants was determined using the CBA Human Th1/Th2/Th17 kit (BD Biosciences), with data acquisition using the FACSCanto flow cytometer. The CBA beads were discriminated in FL-4 and FL-5 channels, while the concentration of specified cytokines was determined by the intensity of FL-2 fluorescence, using the respective standard reference curve and FCAP Array software (BD Biosciences). IL-4 was below the detection level and is not presented in the manuscript. Statistical significance was analyzed with one-way ANOVA using the Origin Pro 2020 software, followed by the Fisher’s posthoc test: *p < 0.05, **p < 0.01, […].

The next data set concerns the target PD-1/PD-L1 complex (Homo sapiens, UniProt Q9NZQ7). The data set is described as follows: HTRF assay of PD-1/PD-L1 complex dissociation (CisBio).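 On all read-outs here: human PD-L1 at 5 nM with human PD-1 at 50 nM, TR-FRET signal read after 2 h at room temperature, background removed via negative control and scaled to positive control.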 As to conditions: for remaining activity at 0.005 µM: 2 h.

Each structure is given as a SMILES string. Read-outs that look alike come from different tables or passages of the source.

PD-1/PD-L1 complex, sequence (Q9NZQ7 19-238 limits assumed, one chain of several): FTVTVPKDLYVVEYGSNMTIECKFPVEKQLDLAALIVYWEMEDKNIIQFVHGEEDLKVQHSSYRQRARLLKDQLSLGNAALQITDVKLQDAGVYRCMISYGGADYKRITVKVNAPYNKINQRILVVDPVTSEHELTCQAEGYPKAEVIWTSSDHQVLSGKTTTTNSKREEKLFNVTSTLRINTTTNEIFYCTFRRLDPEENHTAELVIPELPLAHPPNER
T1 sequence (Q9NZQ7 18-134): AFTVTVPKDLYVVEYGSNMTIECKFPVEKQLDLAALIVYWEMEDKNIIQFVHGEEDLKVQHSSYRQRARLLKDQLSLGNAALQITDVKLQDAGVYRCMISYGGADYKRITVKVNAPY
murine PD-L1, sequence (Q9EP73 18-134 limits assumed): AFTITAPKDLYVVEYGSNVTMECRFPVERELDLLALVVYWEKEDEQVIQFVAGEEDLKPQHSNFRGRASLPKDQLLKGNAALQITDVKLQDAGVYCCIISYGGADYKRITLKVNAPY
Description for PD-1/PD-L1 complex: HTRF was performed using the certified CisBio assay according to the manufacturer’s guidelines. The experiments were performed at 5 nM h-PD-L1 and 50 nM hPD-1 in the final formulation at 20 μL final volume in the well. To determine the half-maximal inhibitory concentration (IC50) of tested compounds, measurements were performed on two individual dilution series, unless states otherwise. After mixing all components according to the CisBio protocol, the plate was left for 2 h incubation at room temperature, followed by time-resolved fluorescence energy transfer (TR-FRET) measurement on Tecan Spark 20M. Collected data were background-subtracted on the negative control, normalized on the positive control, averaged, and fitted with normalized Hill’s equation to determine the IC50 value using Mathematica 12.

For the compound `COc1cc(-c2cccc(-c3ccc4c(c3)OCCO4)c2Cl)ccc1CNC(CO)(CO)CO` [8j, 2-(((3′-(Benzo-1,4-dioxan-6-yl)-2′-chloro-3-methoxy-[1,1′-biphenyl]-4-yl)methyl)amino)-2-(hydroxymethyl)propane-1,3-diol], the “change of hPD-L1 1H NMR spectrum on adding compound” value at human PD-L1 is reported as “broadening of the hPD-L1 proton signals”. Further, the “interaction with mPD-L1 by 1H NMR” value at murine PD-L1 was “no interaction was observed”. Besides, the EC50 at 48 h in data set [1] amounted to 2.88 ± 0.39 µM. The “accumulation of immune-related cytokines in culture media” value in data set [2] is “significant increases observed for IL-6, TNF-α, IFN-γ, IL-10, and IL-2”. Besides, the remaining activity at 0.005 µM on PD-1/PD-L1 complex (read-out: % of undissociated complex at 5 nM) and on PD-1/PD-L1 complex (read-out: HTRF % of the undissociated complex at 5 nM) was 0% throughout. Also, the IC50 on PD-1/PD-L1 complex (HTRF, Table 4, <1.00 = limit of quantification reached) was less than 0.001 µM.
